Data taken from patent US7375124B2, “Use of α-phenylthiocarboxylic and α-phenyloxycarboxylic acids with serum-glucose-lowering and serum-lipid-lowering activity” (Sigma-Tau Industrie Farmaceutiche Riunite S.p.A., priority 2002, dated 2008).
Like-named read-outs stand apart in the source and are kept apart here.

Key:
mPPARαLBD/Gal4DBD = molecular target: T1, mPPARαLBD/Gal4DBD (Mus musculus, UniProt P23204); assay: Transactivation assay mediated by mPPARαLBD/Gal4DBD in COS-7 cells (CAT reporter); type: cell-based
T1 construct: expressed in transfected cells; host or cells: COS-7 (monkey kidney fibroblasts)
T1 sequence (P23204 239-466 limits assumed): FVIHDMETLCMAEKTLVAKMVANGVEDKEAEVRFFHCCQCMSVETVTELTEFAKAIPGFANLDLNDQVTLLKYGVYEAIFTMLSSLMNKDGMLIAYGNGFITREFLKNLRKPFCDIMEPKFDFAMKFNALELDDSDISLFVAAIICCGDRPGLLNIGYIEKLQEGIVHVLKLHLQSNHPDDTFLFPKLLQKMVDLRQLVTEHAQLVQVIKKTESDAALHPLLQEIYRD
Text: In this model a transactivation assay is used in which the expression vector mPPARαLBD/Gal4 DBD allows the synthesis by the transfected cell of a chimeric protein, in which the ligand binding domain (LBD) of PPARα is fused with the DNA binding domain (DBD) of the transcription factor GAL4 of yeast [Luckow B. et al., Nucleic Acids Res. 15, 5490 (1987)]. Simultaneously, a plasmid (pG5CAT) is transfected which contains 5 copies of the high-affinity binding site for GAL4 (also called UAS, upstream activating sequence), upstream of the viral promoter E1b fused with the CAT reporter gene [Moya-Camarena S. Y. et al., J. Lipid Res. 40 (8), 1426-33 (1999)]. This model eliminates interference by possible endogenous receptors.
This is due to the fact that the activation of E1b and the production of CAT will occur exclusively thanks to the interaction of GAL4 DBD with its own response element (UAS). Since the transcription factor GAL4 is not expressed in […] cells, transactivation of the reporter gene can take place only when, as a result of the interaction of a ligand with the LBD of PPARα, the chimeric protein PPARα/GAL4 recognises the UAS sequence on the plasmid pG5CAT. Together with the expression vector and the reporter vector the cells were also transfected with the plasmid pCH110 which provides the internal control for the efficiency of transfection and the normalisation of the results.
A monkey kidney fibroblast cell line (COS-7) was used [Elbrecht A. et al., J. Biol. Chem. 274 (12), 7913-22 (1999)]. The cells were co-transfected with the reporter vector, the expression plasmid coding for the fusion protein Gal4 DBD/PPARαLBD and the control vector pCH110. The cells were exposed to increasing concentrations of the study compounds and CAT activity was evaluated. Untreated cells were used as controls.
Monkey kidney fibroblasts (COS-7) were cultured according to the usual cell culture techniques, at 37° C. in a 5% v/v carbon dioxide atmosphere using as the growth medium DMEM (Dulbecco's modified Eagle's medium) modified with 3.7 g/l of sodium bicarbonate, 4 mM L-glutamine, 4.5 g/l of glucose, 1 mM sodium pyruvate and 10% v/v of foetal bovine serum, in the presence of streptomycin 100 μg/ml and penicillin 100 U/ml final.
The cells were co-transfected using the transfection reagent FuGENE6 (Roche), consisting of a defined mixture of lipids capable of complexing the DNA and of transporting it into the cells. Twenty-four hours prior to transfection the cells were plated at a density of 1.2×10^5 cells/well in 12-well plates and maintained at 37° C. in a 5% v/v CO2 atmosphere. […] Briefly, the transfection mixture containing 0.8 μg of the expression vector, 1.6 μg of the reporter vector, 0.8 μg of the control vector and 9 μl of the FuGENE6 reagent per well was added directly to the cells in the presence of culture medium devoid of serum. After 5 hours, the transfection medium was replaced by 1 ml of culture medium complete with serum and antibiotics in the presence or absence of the molecules to be tested at 3 different concentrations (2, 20 and 100 μM). Wy-14,643 (2 μM), a known ligand of PPARα, was used as the positive reference compound.
After 48 hours' incubation at 37° C. in a 5% v/v CO2 atmosphere, the cells were washed twice with 1 ml of phosphate buffer (PBS) and removed mechanically from the wells in TEN buffer (Tris[hydroxymethyl]aminomethane 10 mM pH 8, ethylenediamine-tetraacetic acid 1 mM pH 8, sodium chloride 0.1 M). After centrifuging for 3 minutes at 1000 rpm, the cells were resuspended in 65 μl of lysis buffer (Tris-HCl 0.25 M, pH 8) and then lysed thanks to three rapid freeze-thaw cycles. The insoluble cellular materials (debris) were removed by centrifuging at 15,000 rpm for 15 minutes at 4° C., and the supernatant was recovered and used for the CAT and β-galactosidase activity assays. […]

C57BL/KsJ db/db mouse [1] = conditions: in vivo
Text: (§1) Plasma levels of glucose, insulin, triglycerides, cholesterol, free fatty acids and urea were checked for a well-matched distribution of mice in the treatment groups.
(§2) At the start of treatment the body weights of the mice were checked and arrangements were made for monitoring water and feed consumption.
(§3) In the course of the experiment, serum glucose levels, oral glucose tolerance test (OGTT) findings, a number of lipid status parameters and weight gain were monitored.

C57BL/KsJ db/db mouse [2] = assay: Antidiabetic and serum-lipid-lowering activity in the db/db mouse (Experiments I and II); conditions: Experiment I; for Glucose: blood
Text: as §1, §2, §3

[3] = after 12 days' treatment, feeding state, approx. 15 hours after last treatment
[4] = after 18 days' treatment, fasting 18 hours, 6 hours after last treatment
[5] = after 25 days' treatment, postabsorption, 7.5 hours after last treatment
[6] = after 25 days' treatment, postabsorption, 7.5 hours after last treatment, mean ± S.E.
[7] = after 18 days' treatment, fasting 18 hours, 6 hours after last treatment, mean ± S.E.
[8] = db/db mice, oral twice daily, after 12 days' treatment, feeding state, approx. 15 hours after last treatment, mean ± S.E.

COC(=O)C(C)(C)Sc1ccc(OCCc2ccc(Cl)cc2Cl)cc1 [Example 5, methyl 2-[4-(2-(2,4-dichlorophenyl)ethoxy)phenylthio]isobutyrate]
melting point: 73 to 74 °C

COC(=O)C(C)(C)Sc1cccc(OCCc2ccc3ccccc3c2)c1 [Example 10, methyl 2-[3-[2-(2-naphthyl)ethoxy]phenylthio]isobutyrato]
Activation of reporter gene CAT as a percentage of the reference compound (WY-14,643 2 μM = 100%) (mPPARαLBD/Gal4DBD; 2 μM): 98.1% | Activation of reporter gene CAT as a percentage of the reference compound (WY-14,643 2 μM = 100%) (mPPARαLBD/Gal4DBD; 20 μM): 360% | Activation of reporter gene CAT as a percentage of the reference compound (WY-14,643 2 μM = 100%) (mPPARαLBD/Gal4DBD; 100 μM): 462.7%

CC(C)OC(=O)C(C)(C)Oc1ccc(C(=O)c2ccc(Cl)cc2)cc1 [Fenofibrate, fenofibrate, reference compound]
Final b.w. (C57BL/KsJ db/db mouse [1]): 34.5 ± 1.0 g | Initial b.w. (C57BL/KsJ db/db mouse [1]): 33.3 ± 0.7 g | Variation % (final b.w.) vs control (C57BL/KsJ db/db mouse [1]): +22% | Variation % (initial b.w.) vs control (C57BL/KsJ db/db mouse [1]): +5% | Variation % (glucose) vs control (C57BL/KsJ db/db mouse [2]; [3]): −4% | Variation % (glucose) vs control (C57BL/KsJ db/db mouse [2]; after 12 days' treatment, postabsorption, 8 hours after last treatment): −1% | Variation % (AUC glucose at OGTT) vs control (C57BL/KsJ db/db mouse [2]; after 18 days' treatment, OGTT glucose 3 g/kg): −12% | AUC glucose at OGTT (C57BL/KsJ db/db mouse [2]; after 18 days' treatment, OGTT glucose 3 g/kg, fasting 18 hours, 5 hours after last treatment, mean ± S.E.): 45192 ± 1546 a.u. | Variation % (glucose) vs control (C57BL/KsJ db/db mouse [2]; [4]): +12% | Variation % (HDL-cholesterol) vs control (C57BL/KsJ db/db mouse [2]; after 25 days' treatment): +18% | Variation % (triglycerides) vs control (C57BL/KsJ db/db mouse [2]; after 25 days' treatment): −30% | Glucose (plasma) (C57BL/KsJ db/db mouse [2]; after 25 days' treatment, postabsorption (fasting 9 a.m. to 4.30 p.m.), 7.5 hours after last treatment, mean ± S.E.): 553 ± 30 mg/dL | Variation % (fructosamine) vs control (C57BL/KsJ db/db mouse [2]; [5]): +15% | Variation % (plasma glucose) vs control (C57BL/KsJ db/db mouse [2]; [5]): +21% | Fructosamine (plasma) (C57BL/KsJ db/db mouse [2]; [6]): 0.92 ± 0.02Δ mM | HDL-choles. (plasma) (C57BL/KsJ db/db mouse [2]; [6]): 96.4 ± 4.2 mg/dL | Triglycerides (plasma) (C57BL/KsJ db/db mouse [2]; [6]): 66.5 ± 3.5Δ mg/dl | Glucose (C57BL/KsJ db/db mouse [2]; after 12 days' treatment, postabsorption (fasting 9 a.m. to 5 p.m.), 8 hours after last treatment, mean ± S.E.): 409 ± 11 mg/dL | Glucose (C57BL/KsJ db/db mouse [2]; [7]): 384 ± 20 mg/dL | Glucose (C57BL/KsJ db/db mouse [2]; [8]): 466 ± 8 mg/dL

CN(CCOc1ccc(CC2SC(=O)NC2=O)cc1)c1ccccn1 (stereo not shown) [Rosiglitazone, rosiglitazone, reference compound]
Variation % (final b.w.) vs control (C57BL/KsJ db/db mouse [1]): +49% | Variation % (initial b.w.) vs control (C57BL/KsJ db/db mouse [1]): +3% | Variation % (glucose) vs control (C57BL/KsJ db/db mouse [2]; [3]): −25% | Variation % (glucose) vs control (C57BL/KsJ db/db mouse [2]; [4]): −35% | Variation % (HDL-cholesterol) vs control (C57BL/KsJ db/db mouse [2]; after 25 days' treatment): −20% | Variation % (triglycerides) vs control (C57BL/KsJ db/db mouse [2]; after 25 days' treatment): −54% | Glucose (C57BL/KsJ db/db mouse [2]; [7]): 225 ± 27▪ mg/dl | Glucose (C57BL/KsJ db/db mouse [2]; [8]): 365 ± 64 mg/dL | Final b.w. (C57BL/KsJ db/db mouse [2]; final body weight after 25 days' treatment, postabsorption condition, mean ± S.E.): 42.1 ± 2.5Δ g | Initial b.w. (C57BL/KsJ db/db mouse [2]; initial body weight, postabsorption condition, mean ± S.E.): 32.6 ± 1.4 g
